54 sequences from the supplement of paper PMC2824726 can be followed below.

Where “and” joins values, the source holds several entries; their conditions need not be identical. Equal entries are not always repeated.

This data set has as its system MDA-MB-231. In words: shRNA barcode abundance ratio t_end/t_zero (depletion over 4 weeks of proliferation) (log2 ratio); higher = less depletion (weaker anti-proliferative effect of the shRNA). To be noted: time after t zero 28 days. The essentials: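 Cells of the MDA-MB-231 line were transduced with a pooled lentiviral shRNA library at an MOI of 0.3 and selected in 0.5 μg/ml puromycin, and genomic DNA was collected from three biological replicates at 5 days (t_zero) and 33 days post-infection. The barcodes were amplified by PCR, labelled with biotin and hybridised for 16 h at 45°C to Geniom One tiling arrays carrying six 25-nt probes per barcode, then detected with streptavidin phycoerythrin. For the abundance ratio, each t_end/t_zero signal ratio is normalised to the subarray median and averaged over background-filtered probes. This average is taken on a log2 scale.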

With “TCAATCAAAGGGAAACTTGAA (targeted gene: TPT1)”, the “shRNA barcode abundance ratio t end/t zero (log2)” value was -0.105.

For the sequence “CCTCAGATTGTTGTTGTTAAT (targeted gene: IL6)”, the “shRNA barcode abundance ratio t end/t zero (log2)” value came out at 0.311.

For “GCTGTAACTACTTTATAACTA (targeted gene: RHOA)”, the “shRNA barcode abundance ratio t end/t zero (log2)” value is -0.0204.

Consider “TGTTAACAAATGTGGCAATTA (targeted gene: TPT1)”, for which the “shRNA barcode abundance ratio t end/t zero (log2)” value was determined as 0.164.

“GGGAATGATCAGATTCCTTTA (targeted gene: BFAR)”: the “shRNA barcode abundance ratio t end/t zero (log2)” value stood at 0.171.

Regarding “ACTGCTGTACTGGTTTGCAAA (targeted gene: BNIP2)”, the “shRNA barcode abundance ratio t end/t zero (log2)” value stood at 0.104.

Take “TCACAGAGCTTTGTAAGCAAA (targeted gene: NME5)”: the “shRNA barcode abundance ratio t end/t zero (log2)” value is 0.139.

As to “GCGCACAGGCTTTATCGAGAA (targeted gene: IGFBP3)”, the “shRNA barcode abundance ratio t end/t zero (log2)” value is -0.0187.

With “GGCTTTGTCTTTACAGGTAAA (targeted gene: NAIP)”, the “shRNA barcode abundance ratio t end/t zero (log2)” value was found to be 0.603.

For the sequence “CGGTTTGCTGAGGAGAAAGAA (targeted gene: AVEN)”, the “shRNA barcode abundance ratio t end/t zero (log2)” value was 0.241.

Turning to “ACCCATTCTTCCCGTTCTTAA (targeted gene: HDAC1)”, the “shRNA barcode abundance ratio t end/t zero (log2)” value was 0.135.

As for “GGCAAATCCTTGTTTAACAAA (targeted gene: BIRC6)”, the “shRNA barcode abundance ratio t end/t zero (log2)” value worked out at 0.616.

As for “GGGAGGTAAATCAACATATAT (targeted gene: MSH2)”, the “shRNA barcode abundance ratio t end/t zero (log2)” value stood at 0.109.

Consider “GAACTAGATCTGTTGCTTAAT (targeted gene: AVEN)”, for which the “shRNA barcode abundance ratio t end/t zero (log2)” value was 0.231.

Turning to “CGGGTTTCTCCGGCGTCATTA (targeted gene: PIM1)”, the “shRNA barcode abundance ratio t end/t zero (log2)” value is 0.0461 and 0.0898.

As for “CCATATAGTTCCTTGGGATTA (targeted gene: BCL2L2)”, the “shRNA barcode abundance ratio t end/t zero (log2)” value amounted to 0.203.

As for “GCAGATGAAGATCATCGAAAT (targeted gene: BRAF)”, the “shRNA barcode abundance ratio t end/t zero (log2)” value stood at 0.116.

As to “CCTCACCCTGTCAGGTATCAA (targeted gene: MYBL2)”, the “shRNA barcode abundance ratio t end/t zero (log2)” value is -0.1.

As for “GGAGTGCTCATTGTGAAGAAA (targeted gene: SORT1)”, the “shRNA barcode abundance ratio t end/t zero (log2)” value was -0.0388.

As to “GGATGTTGGAAATTACTATTA (targeted gene: HDAC1)”, the “shRNA barcode abundance ratio t end/t zero (log2)” value was 0.178.

Consider “GGACTTCAGCAGAAATCTTTA (targeted gene: CASP8)”, for which the “shRNA barcode abundance ratio t end/t zero (log2)” value worked out at 0.126.

With “CCCGTATGTGTCAACACCTAT (targeted gene: CRTAC1)”, the “shRNA barcode abundance ratio t end/t zero (log2)” value is -0.136.

Regarding “CCAGCTGTTTATGCATAGATA (targeted gene: CXCR4)”, the “shRNA barcode abundance ratio t end/t zero (log2)” value was determined as 1.87.

As to “GGAACTTTAGTTGAAGCGTAA (targeted gene: APAF1)”, the “shRNA barcode abundance ratio t end/t zero (log2)” value amounted to 0.303.

In the case of “GGACAAAGTTTACCAAATGAA (targeted gene: CASP8)”, the “shRNA barcode abundance ratio t end/t zero (log2)” value came to 0.402.

As for “CCTGTCAATATTGATGACTTG (targeted gene: BRAF)”, the “shRNA barcode abundance ratio t end/t zero (log2)” value was determined as 0.319.

As for “CCCTGAGACCATATCCTTAAA (targeted gene: OPA1)”, the “shRNA barcode abundance ratio t end/t zero (log2)” value was -0.115.

On to “CCTGTTATCAATCTGCTAAAT (targeted gene: FOXO1)”, for which the “shRNA barcode abundance ratio t end/t zero (log2)” value is 0.0156.

For the sequence “CGCCTTTCCTTAAGGAACAAA (targeted gene: NAIP)”, the “shRNA barcode abundance ratio t end/t zero (log2)” value turned out to be 0.0933.

As to “GGGAATCCAGTGTGTGAAGAA (targeted gene: RELA)”, the “shRNA barcode abundance ratio t end/t zero (log2)” value came out at 0.121.

With “GGCAGCTTCCTTGAACCATTA (targeted gene: SPHK1)”, the “shRNA barcode abundance ratio t end/t zero (log2)” value was -0.334.

For the sequence “CCGTTATGAAAGAGAAATGAA (targeted gene: HMGB1)”, the “shRNA barcode abundance ratio t end/t zero (log2)” value was -0.0571.

Regarding “CCAATGATGCTGCTCAAGTTA (targeted gene: ABCB1)”, the “shRNA barcode abundance ratio t end/t zero (log2)” value worked out at 0.272.

Turning to “CCAGACTCAGTTCACTGCAAA (targeted gene: MALT1)”, the “shRNA barcode abundance ratio t end/t zero (log2)” value is -0.00481.

Consider “GCATCATGCCTTCTGAATAAA (targeted gene: CLN3)”, for which the “shRNA barcode abundance ratio t end/t zero (log2)” value is 0.486.

With “GGAGAAATTATTGATCCAAAT (targeted gene: NAIP)”, the “shRNA barcode abundance ratio t end/t zero (log2)” value amounted to 0.608.

On to “CGAGAGAGTTTCCCTACGTAT (targeted gene: CDH1)”, for which the “shRNA barcode abundance ratio t end/t zero (log2)” value stood at 0.249.

For the sequence “CCTGTTGGTGTCTTTATTATT (targeted gene: CDH1)”, the “shRNA barcode abundance ratio t end/t zero (log2)” value is 0.164.

On to “CACCAGCACTTTATACACTTC (targeted gene: RHOC)”, for which the “shRNA barcode abundance ratio t end/t zero (log2)” value amounted to 0.652.

Turning to “GCTTGTTGTTTGAGAAGTTTA (targeted gene: BAG3)”, the “shRNA barcode abundance ratio t end/t zero (log2)” value was 0.38.

As to “GGATAGACTGGTCTAGAATAA (targeted gene: RALBP1)”, the “shRNA barcode abundance ratio t end/t zero (log2)” value was found to be 0.174.

Take “GGTCTTACTGAAGTAACACAA (targeted gene: TAX1BP1)”: the “shRNA barcode abundance ratio t end/t zero (log2)” value stood at 0.346.

Regarding “CCTACTAACAATATCTGTTAA (targeted gene: SOCS2)”, the “shRNA barcode abundance ratio t end/t zero (log2)” value was found to be 0.0566.

On to “GCACAAGCAGCTGATCCGATT (targeted gene: IL4)”, for which the “shRNA barcode abundance ratio t end/t zero (log2)” value was -0.0177.

“GCGCCGAAATTGCAGGTTTAT (targeted gene: BIRC8)”: the “shRNA barcode abundance ratio t end/t zero (log2)” value was -0.37.

As to “GCCGTTAACTAGGTTAATAAA (targeted gene: FANCF)”, the “shRNA barcode abundance ratio t end/t zero (log2)” value is -0.0468.

Take “GCCTATATCAGCAATTGTCAT (targeted gene: ATM)”: the “shRNA barcode abundance ratio t end/t zero (log2)” value is -0.178.

For “GGCATTAGTTTCTCAGTTAAA (targeted gene: MLH1)”, the “shRNA barcode abundance ratio t end/t zero (log2)” value is 0.141.

“AGGCAATTTATCTTGATGTGA (targeted gene: FAIM3)”: the “shRNA barcode abundance ratio t end/t zero (log2)” value was 0.137.

For the sequence “AGAGAGAACTGCTCAGTAATT (targeted gene: BRE)”, the “shRNA barcode abundance ratio t end/t zero (log2)” value was determined as 0.237.

As for “GCAGTATAGAGCGTGCAGATA (targeted gene: PTEN)”, the “shRNA barcode abundance ratio t end/t zero (log2)” value was -0.0774.

As for “GGCCCAGTGTTTCTTCTGCTT (targeted gene: BIRC5)”, the “shRNA barcode abundance ratio t end/t zero (log2)” value was -0.948.

With “CCCAGCAATAATTTAAACTTA (targeted gene: WRN)”, the “shRNA barcode abundance ratio t end/t zero (log2)” value is 0.168.

For “CCATATTTGCATTTGAAGGTA (targeted gene: BCL2A1)”, the “shRNA barcode abundance ratio t end/t zero (log2)” value amounted to 0.349.
